We go through 29 compounds from PubChem BioAssay (NCI).

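In this assay, cells in 96-well plates receive the compound at five concentrations for 48 hours. Endpoints are linearly interpolated between the surrounding concentrations. GI50 marks 50% less growth. At the TGI there is no net growth.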

What all share (assay): inhibition of tumour cell growth, NCI panel, 48 h
For test [1], the system named is UACC-62 melanoma.
Test [2] concerns SNB-19 CNS.
Test [3] relates to K-562 leukemia.
The subject of test [4] is HT29 colon.
For test [5], the system named is SF-295 CNS.
Test [6] relates to EKVX NSCLC.
Test [7] deals with HCT-116 colon.
The subject of test [8] is HOP-92 NSCLC.
The subject of test [9] is SF-539 CNS.
Test [10] has as its system BT-549 breast.

As to `COc1nc(C)cc2c(=O)n(-c3ccccc3)n(CC(O)CN3CCN(c4ccc(Cl)cc4)CC3)c(=O)c12` (centres undefined), the GI50 in [1] was 46.6 µM; in test [2], 17.5 µM; in test [3] it was greater than 50 µM; in test [4] it was greater than 50000 nM; in test [5] it was 36.4 µM; in test [6] it was greater than 50 µM. Besides, the GI50 in test [7] was greater than 50 µM; in test [8], 7.08 µM; in [9], 22.7 µM. The TGI in test [1], in [2], in test [3], in [4], in test [5] and in test [6] was greater than 50 µM in each case. In addition, the TGI in test [7] is greater than 50 µM; in test [8], 18.5 µM; in test [9] it was greater than 50 µM.
As for `CC1(O)CCC2(C)C(=O)C1(C)CCC21OCCO1` (centres undefined), the TGI in test [2], in [3], in test [4], in [5], in [6] and in [8] was greater than 100 µM in each case. This compound also yielded a TGI in test [9] greater than 100 µM.
`Cc1c(Cl)cccc1NC(=O)/C(Cl)=C(\Cl)C(=O)O`: the TGI in test [1] was 26.6 µM; in test [2], greater than 100 µM; in [3] it was greater than 100 µM; in test [4] it was 38 µM; in [5], 37.9 µM; in test [7], 27.4 µM. For the same compound, the TGI in test [8] was determined as 31.6 µM; in test [9] it was 31.7 µM.
Regarding `O=C1CCN2CCC(=O)c3c2c(cc2ccccc32)N1`, the TGI in test [1], in test [2], in test [3], in test [4], in [5] and in test [6] was greater than 100 µM in each case. For the same compound, the TGI in test [7] and in test [9] was greater than 100 µM in each case.
As for `COc1c(Sc2ccccc2)cc(Sc2ccccc2)c2cccnc12`, the TGI in [1] was 63.2 µM; in test [2], greater than 100 µM; in test [3], greater than 100 µM; in test [4], 71.1 µM; in test [5], 78.6 µM; in test [6] it was greater than 100 µM. The TGI in test [7] is greater than 100 µM; in test [9] it was 85.5 µM.
With `CCOC(=O)C1=C(Nc2ccc(Cl)c(Cl)c2)OC/C1=N\NC(=O)Cc1ccccc1`, the TGI in [1], in [2], in [3], in test [5], in [6] and in test [7] was greater than 100 µM in each case. In [9], this compound registered a TGI greater than 100 µM.
As to `COC(=O)C(CC(=O)c1c[nH]c2ccccc12)c1c[nH]c2ccccc12` (centres undefined), the TGI was greater than 10 µM in [1]; 66.7 µM in [3]; 31.2 µM in test [4]; greater than 10 µM in test [5]; 74.1 µM in [6]; 31.6 µM in test [7]. Also, the TGI in [9] amounted to 39.5 µM.
As for `Clc1ccc2c(c1)[nH]c1c2nc2sccn21`, the TGI in [1], in test [2], in test [3], in test [4], in test [5] and in test [6] was greater than 100 µM throughout. For the same compound, the TGI in test [7], in test [8] and in [9] was greater than 100 µM each time.
Take `Cc1c(C(=O)CC(=O)C(=O)Nc2cc(Cl)ccc2Cl)[n+](=O)c2ccccc2n1[O-]`: the TGI was 40.2 µM in test [1]; greater than 100 µM in test [2]; greater than 100 µM in [3]; greater than 100 µM in [4]; greater than 100 µM in test [5]; greater than 100 µM in [6]. Moreover, the TGI in [7], in test [8] and in test [9] was greater than 100 µM each time.
On to `COc1ccccc1NC(=O)C1=C(C)NC(C)=C(C(=O)Nc2ccccc2OC)C1c1ccc(N(C)C)cc1`, for which the TGI in test [2] is greater than 100 µM; in test [3] it was 54.3 µM; in test [4], greater than 100 µM; in test [5], greater than 100 µM; in [6], greater than 100 µM; in test [7], 74.7 µM. For the same compound, the TGI is 38.6 µM in [8] and 73.7 µM in test [9].
For `NC(=O)c1csc(C2CCC(CO)O2)n1` (centres undefined), the TGI in [1], in test [2], in test [3], in test [4], in [5] and in [6] was greater than 100 µM in each case. Further, the TGI in test [7], in test [8] and in test [9] was greater than 100 µM in each case.
In the case of `CN1C(=O)C2C=CC1C1CCC2N(C)C1=O` (centres undefined), the TGI in test [1], in test [2], in test [3], in [4], in [5] and in test [6] was greater than 100 µM each time. For the same compound, the TGI in test [7], in [8] and in test [9] was greater than 100 µM throughout.
With `COC(=O)c1ccc(C(=O)OC)c2nc3cc(C)ccc3nc12`, the TGI in test [1], in [2], in test [3], in test [4], in test [5] and in test [6] was greater than 100 µM throughout. In addition, the TGI in [8] and in test [9] was greater than 100 µM in each case.
On to `CCCCN(CC)c1ncnc2ccc(Br)cc12`, for which the GI50 is 15.7 µM in test [1]; 35.2 µM in test [2]; 10.4 µM in [3]; 17.8 µM in test [5]; 15.8 µM in test [7]; 9.44 µM in [8]. The TGI in [1] is 34.7 µM; in test [2] it was greater than 100 µM; in test [3], 51.1 µM; in test [5] it was 38.3 µM; in test [7], 36.2 µM; in test [8], 33.8 µM.
As to `COc1cc(/C=C/c2ccc(OC)c(OC)c2OC)cc(OC)c1OC`, the TGI is 28.1 µM in [1]; 97.9 µM in test [2]; greater than 69.3 µM in test [3]; greater than 63.9 µM in [4]; 55.7 µM in [5]; greater than 70.8 µM in test [6]. The TGI in [7] stood at 27.9 µM; in test [8] it was 31.8 µM; in test [9], 37 µM.
On to `Cc1cccc(N=C2NC(=O)C(CC(=O)Nc3ccc(C)cc3C)S2)c1` (centres undefined), for which the TGI in test [1], in test [2], in [3], in test [4], in [5] and in [6] was greater than 100 µM throughout. Also, the TGI in test [7], in test [8] and in [9] was greater than 100 µM each time.
On to `CCCCN(CCCC)CCc1c(C)cc(C)c(CCN(CCCC)CCCC)c1O`, for which the GI50 in test [1] is 2.86 µM; in test [2], 3.04 µM; in test [3], 2.25 µM; in test [4] it was 2520 nM; in [5], 2.2 µM; in test [10] it was 2780 nM. Further, the GI50 in test [7] is 1.87 µM; in test [9] it was 3.51 µM. The TGI is 29.7 µM in test [1]; greater than 100 µM in test [2]; greater than 100 µM in [3]; 13 µM in [4]; 6.97 µM in test [5]; 6.87 µM in test [10]. In addition, the results for the TGI in test [7] and in test [9] were 8.34 µM and 28.2 µM, respectively.
Turning to `ClCc1ccc(C2OCCO2)cc1`, the TGI is greater than 52 µM in test [1]; greater than 59 µM in test [2]; greater than 31.6 µM in test [3]; 32.6 µM in [4]; 35.5 µM in test [5]; greater than 63 µM in test [6]. In addition, the TGI in [7] is greater than 52.1 µM; in [8], 38.2 µM; in test [9] it was greater than 56.7 µM.
Consider `COC(=O)[C@H]1N[C@@H](C(=O)OC)C23CCC[C@H]2CC[C@]1(C(OC)OC)C3`, for which the TGI in test [1], in test [2], in test [3], in [4], in [5] and in test [6] was greater than 100 µM throughout. In addition, the TGI in test [7], in test [8] and in test [9] was greater than 100 µM each time.
Consider `O=C(CSc1nc(-c2ccccc2)c(-c2ccccc2)[nH]1)NNC(=S)Nc1ccccc1`, for which the TGI in test [1], in test [2], in [4], in test [5], in test [6] and in [7] was greater than 100 µM in each case. Also, the TGI in test [8] and in test [9] was greater than 100 µM each time.
Turning to `O=c1cc(-c2ccccn2)[nH]c2cc(F)ccc12`, the TGI in test [1], in test [2], in test [3], in test [4], in test [5] and in test [6] was greater than 100 µM each time. The TGI in [7], in test [8] and in test [9] was greater than 100 µM in each case.
For the compound `CC(/C=C/NNC1=NC(c2ccccc2)C(c2ccccc2)=NN1)Sc1ccccc1N` (centres undefined), the TGI was 10.8 µM in test [1]; 25.1 µM in test [2]; greater than 100 µM in [3]; 23.9 µM in test [4]; 22.4 µM in test [5]; 32.8 µM in test [6]. Besides, the TGI amounted to 21.8 µM in test [7], 22.8 µM in [8] and 20.9 µM in test [9].
Turning to `COc1cc2c3c(ncc2c(OC)c1OC)-c1cc2c(cc1C3)OCO2`, the GI50 in [1] was 22.4 µM; in test [2], 26.1 µM; in test [3], 4.27 µM; in test [5], 29.8 µM; in [6], 17.2 µM; in test [7], 22.1 µM. Further, the GI50 in test [8] was 61.1 µM. For the same compound, the TGI in test [1] was 65.9 µM; in test [2] it was 55.6 µM; in [3], 20.5 µM; in test [5], greater than 100 µM; in test [6], 73.9 µM; in [7], 36.5 µM. In test [8], this compound returned a TGI greater than 100 µM.
As for `CC1=NOC(=O)C1N=Nc1ccc(Br)c(C)c1` (centres undefined), the TGI in test [1] was 37.7 µM; in [2] it was 92.8 µM; in test [3], 30.5 µM; in test [4], greater than 100 µM; in [5], 66.4 µM; in test [6] it was 32 µM. The TGI was 33.9 µM in test [7], 34.4 µM in test [8] and 44.6 µM in test [9].
In the case of `N#Cc1c(C[n+]2ccccc2)c2ccccc2oc1=O`, the TGI in test [1], in test [2], in [3], in test [4], in [5] and in test [6] was greater than 100 µM each time. Moreover, the TGI in [7] and in test [9] was greater than 100 µM throughout.
In the case of `CCOC(=O)c1c(-c2ccccc2)c(C(OC(c2ccccc2)c2c(-c3ccccc3)c(C(=O)OCC)n3ccccc23)c2ccccc2)c2ccccn12` (centres undefined), the TGI in test [1], in [2], in [3], in [4], in test [5] and in test [6] was greater than 100 µM in each case. In test [7], this compound returned a TGI greater than 100 µM.
For the compound `COc1ccc2ccccc2c1CN1CCOCCOCCN(Cc2c(OC)ccc3ccccc23)CCOCCOCC1`, the TGI is greater than 100 µM in test [1]; greater than 100 µM in test [2]; greater than 100 µM in test [3]; greater than 44 µM in test [4]; greater than 100 µM in test [5]; greater than 100 µM in [6]. The TGI was greater than 59 µM in test [7], greater than 70 µM in [8] and greater than 68.8 µM in test [9].
`COC(=O)[C@]1(C)C(OC)=CC(=O)C2C1[C@H]1CCC[C@@H]21` (some centres undefined): the TGI in test [1], in [2], in test [3], in test [4], in test [5] and in [6] was greater than 100 µM in each case. For the same compound, the TGI in test [7], in test [8] and in [9] was greater than 100 µM each time.
With `S=P(N1CCCC1)(N1CC1)N1CC1`, the TGI in test [1], in [2], in [3], in test [4], in test [5] and in [6] was greater than 100 µM throughout. Also, the TGI in [7] and in test [9] was greater than 100 µM throughout.
